These results are taken from patent US20190365717A1, “TREATING PATHOLOGICAL CONDITIONS BY DIRECT AND INDIRECT TARGETING OF SIRPA-CD47 INTERACTION” (STICHTING HET NEDERLANDS KANKER INSTITUUT-ANTONI VAN …, priority 2017, published 2019).

Usually Ki stands for the dissociation constant of the complex between target and ligand, obtained from inhibition or displacement.

Molecules are shown by their SMILES.

Series [1] has as its system HAP1 cells. Put plainly: Small molecule inhibition of glutaminyl cyclase: anti-CD47 clone CC2C6 binding, flow cytometry. In kind it is cell-based, human. The procedure: (§1) Surface levels of CD47 were assessed by performing immunohistochemical staining cells with fluorochrome labelled antibodies directed against CD47 (clones CC2C6, 2D3, B6H12., see Table 1) at a dilution of 1:50 in PBS containing 0.5% w/v BSA (Sigma) and 0.2% w/v sodium azide (Sigma) (“FACS buffer”) for 30 minutes, at 4° C., protected from light. SIRPα binding to CD47 was assessed by incubating cells with recombinant extracellular domain of human SIRPα fused to human IgG ((SIRPα-Fc); Recombinant Human SIRP alpha/CD172a Fc Chimera Protein see Table 1) at a dilution of 1:50 in FACS buffer for 30 minutes, at 4° C., protected from light. After 1 wash with FACS buffer to remove unbound SIRPα-Fc, cells were immunostained with a fluorochrome labelled antibody against human IgG (HP6017, see Table 1) for 30 minutes, at 4° C., protected from light. After 2 washes with FACS buffer to remove unbound antibody, immunohistochemical staining intensity or binding intensity was analyzed on an LSRII (BD Bioscience).
For orientation: Flow cytometry measures light scatter and fluorescence of single cells or particles in a stream.

For series [2], the system named is HAP1, RKO, A375, A549 and DLD1 cells. The conditions noted are these: PBD150 1000 microM, 72 hours, medium refreshed every 24 hours. How it is done: as §1
Next, HAP1, RKO, A375, A549 and DLD1 cells were treated for 72 hours with PBD150 (1000 microM) or vehicle and medium was refreshed every 24 hours.

The target of series [3] is human QPCTL (Homo sapiens, UniProt Q9NXS2). Particulars: cited from earlier work.
Chain of human QPCTL (Q9NXS2 whole entry): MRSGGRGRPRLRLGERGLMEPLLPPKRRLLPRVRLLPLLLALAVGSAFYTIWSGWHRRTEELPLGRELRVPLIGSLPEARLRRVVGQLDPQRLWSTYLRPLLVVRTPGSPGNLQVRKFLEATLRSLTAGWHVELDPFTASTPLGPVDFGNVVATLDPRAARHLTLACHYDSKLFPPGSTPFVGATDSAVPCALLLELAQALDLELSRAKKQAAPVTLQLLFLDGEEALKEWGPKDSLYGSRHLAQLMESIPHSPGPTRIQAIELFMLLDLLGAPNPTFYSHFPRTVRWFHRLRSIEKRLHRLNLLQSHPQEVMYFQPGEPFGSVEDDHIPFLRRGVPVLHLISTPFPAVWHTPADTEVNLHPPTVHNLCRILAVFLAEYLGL
For series [4] the following is noted: Phase 1 study with 200 healthy young and elderly volunteers; cited from earlier work.
Series [5] has as its system QPCT and QPCTL. Particulars: Phase 1 study with 200 healthy young and elderly volunteers; cited from earlier work.
The subject of series [6] is A375, A431, Raji, A549, DLD1, HAP1, RKO and SKBR3 cells. Put plainly: SEN177 and PQ912 treatment, cell surface binding of hSIRPα-Fc and anti-CD47 antibodies, flow cytometry. The conditions noted are these: refreshed every day, four days. In kind it is cell-based, human. Also on record: dose or concentration left out as unconfirmed. How it is done: (§2) After indicated antibody stainings, cells were washed with FACS buffer to remove unbound antibody and DAPI was added to allow dead cell exclusion and samples were analyzed on an LSRII or LSRFortessa (BD Bioscience).
(§3) DMSO or inhibitor was refreshed every day and after four days, cells were analyzed by flow cytometry.

The test system of series [7] is pyroglutamate-modified CD47 in A375 melanoma cells. Put plainly: Analysis of αCD47-CC2C6 / αCD47-B6H12 immunoprecipitates of HA-tagged CD47. Particulars: untreated versus SEN177-treated cells, 10 μM SEN177 for 16 h. In kind it is cell-based, human. How it is done:
At the day of analysis, cells were starved in methionine- and cysteine-free medium for 1 h at 37° C. Subsequently, cells were pulse-labelled with 0.75 mCi/600 μL [^35S]Cys/[^35S]Met (PerkinElmer) for the indicated time period. Cells were washed with PBS to remove residual [^35S]Cys/[^35S]Met and then cultured in regular medium with 1 mM ‘cold’ methionine and cysteine for the indicated time period. Cells were lysed and [^35S]Cys/[^35S] incorporation was measured via TCA precipitation of aliquots of lysates on 3 MM Whatman paper and counting in a Perkin Elmer LSC 2800 ultima gold scintillation counter. Next, for pre-clearing and IP purposes, purified mouse IgG1 kappa isotype control (Biolegend, 400102), anti-human CD47 antibody B6H12.2 (Novus, NBP2-31106), and purified anti-human CD47 antibody CC2C6 (Biolegend, 323102) was bound to protein-G-coated Dynabeads (ThermoFisher Scientific) according to manufacturer's instructions. […] Next, immunoprecipitates were heated at 50° C. for 10 min with 2× Laemmli buffer and analyzed using a Novex NuPAGE Gel Electrophoresis System (Thermo Fisher Scientific). Gels were treated with 1 M Na salicylate pH 5.6 before drying and then analyzed on Fujifilm BAS-MP phosphor imager screens 4° C. Screens were analyzed on a lasser scanner Typhoon FLA 9500.

The test system of series [8] is QPCTL-deficient lung cancer (A549) and epidermoid carcinoma (A431) cells. Nature of the series: SEN177 treatment of QPCTL-deficient cells, SIRPα binding by flow cytometry. In kind it is cell-based, human. The procedure: as §2, §3
Series [9] deals with B16F10 melanoma cells and Ba/F3-Her2 pro-B cells. Nature of the series: SEN177 treatment of murine cells, mSIRPα-Fc and αmCD47-MIAP301 binding, flow cytometry. In kind it is cell-based. Particulars: SEN177, both cell lines. The procedure: as §2, §3
The test system of series [10] is Ba/F3-Her2 cells. Put plainly: ADCC of 51Cr-labeled Ba/F3-Her2 target cells by human effector cells. In kind it is cell-based, murine. Particulars: human neutrophils, with anti-Her2, 10 μM SEN177, 4 h 51Cr-release. The procedure: (§4) Briefly, 1×10^6 target cells were labelled with 100 μCi (3.7 MBq) ^51Cr for 2 h. After extensive washing, cell numbers were adjusted to 1×10^6/mL. The polymorphonuclear leukocyte (PMN) fraction from peripheral blood of healthy donors (UMC Utrecht, Utrecht) was isolated by Ficoll/Histopaque separation (GE Healthcare; Sigma-Aldrich). Effector cells and target cells were added to round-bottom microtiter plates (Corning Incorporated) (E:T ratio=40:1), in the presence of the indicated concentration of a Her2 antibody. After 4 h incubation at 37° C., ^51Cr release was measured. Percentage specific lysis was calculated using the following formula: ((experimental cpm—basal cpm)/(maximal cpm—basal cpm))×100, with maximal lysis determined in the presence of 3% triton and basal lysis determined in the absence of antibody and effector cells. […] All experiments were performed in triplicate.

Series [11] concerns Ba/F3-Her2 cells. Put plainly: ADCC of 51Cr-labeled Ba/F3-Her2 target cells by mouse effector cells. In kind it is cell-based. The conditions noted are these: murine immune cells isolated from whole blood as effector cells, anti-Her2 IgA1. The procedure:
as §4
In brief, to obtain mouse effector cells, blood was collected from pegylated granulocyte colony-stimulating factor (G-CSF)-stimulated human FcaRl transgenic Balb/c mice from the retro-orbital plexus into Li-heparin tubes. Erythrocytes were lysed by incubation in water for […], and total leukocytes were resuspended in medium (half the volume of the original blood volume). 50 μL of total leukocytes, containing ˜70% PMNs, were added per well.

In series [12] the test system is short-term cultures of melanoma xenografts. Nature of the series: SEN177 treatment of short-term melanoma PDX cell lines, FACS binding. In kind it is cell-based, human. The conditions noted are these: 10 μM SEN177 for 4 days, six cultures. An excerpt: Cell lines: Short-term cell lines from primary melanoma patient-derived xenografts (PDX) were generated as described (Kemper et al., EMBO Mol. Med. 7, 1104-1118, 2015) and were a gift from D. Peeper and K. Kemper. […]

Series [13] has as its system CD47 pyroglutamylation in HAP1 cells. Nature of the series: QPCTL inhibitor assay: CD47 pyroglutamylation (CC2C6 / 2D3 staining). In kind it is cell-based, human. Particulars: 48 hours, 10-fold dilutions, maximum 500 μM. The procedure: An equal volume of HAP1 (200,000/well), A375 (50,000/well) or RKO (100,000/well) cells was added and QPCTL and CD47 knockout cells were taken along in control wells.
After 48 hours incubation at 37 degrees, 5% CO2, cells were washed once with PBS before releasing with 100 μl TrypIE dissociation reagent per well and transfer to V-bottom 96-well plates (Greiner Bio-One) pre-filled with 100 μl FACS buffer (10% FCS/PBS). Cells were spun 3′ at 3000 rpm, washed once with FACS buffer and again spun 3′ at 3000 rpm. Next, cells were incubated for 2 hours at 4 degrees with a mix of 1:500 FITC-conjugated anti-human CD47 clone 2D3 and 1:500 Alexa647-conjugated anti-human CD47 clone CC2C6 for the pyroglutamylation assays. Alternatively, cells were incubated with 50 μl 1:50 recombinant SIRPα-human Fc fusion protein in FACS buffer for the SIRPα assays. For the SIRPα assays, two wash steps followed by spinning 3′ at 3000 rpm and resuspending the cells in FACS buffer before spinning a final time and resuspending and incubating the pellet for 1 hour at 4 degrees in 100 μl 1:100 APC-conjugated rabbit-anti-human antibody. Cells of both assay were spun down and washed twice with FACS buffer to remove unbound antibody. Cells were again spun down and taken up in 300 μl FACS buffer before analyzed on a FACSAria III using FACS Diva software (BS Biosciences). The median fluorescence intensity (MFI) of each sample was linearly transformed to scale between the MFIs of wildtype and CD47 knockout cells in case of the 2D3 antibody and the wildtype and QPCTL knockout cells in case of the CC2C6 antibody.

For series [14], the target named is T1, recombinant human isoQC (Homo sapiens, UniProt Q9NXS2).
T1 construct: enzymatically active region of human isoQC (S53-L382, Huang et al., JBC, 286, 12439-12449, 2011); GST with enterokinase site (N, cleaved yes); made in house; host or cells: E. coli, pET41(+) vector
T1 sequence (Q9NXS2 53-382): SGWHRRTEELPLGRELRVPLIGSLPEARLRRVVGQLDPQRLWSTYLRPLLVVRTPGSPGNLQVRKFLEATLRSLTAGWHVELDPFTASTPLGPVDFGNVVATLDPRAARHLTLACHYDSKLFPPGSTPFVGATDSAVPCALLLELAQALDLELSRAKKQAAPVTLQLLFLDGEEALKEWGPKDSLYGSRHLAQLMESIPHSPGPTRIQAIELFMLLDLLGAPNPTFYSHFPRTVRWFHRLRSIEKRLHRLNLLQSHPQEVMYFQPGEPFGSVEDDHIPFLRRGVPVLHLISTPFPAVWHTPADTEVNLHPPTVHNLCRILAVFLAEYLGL
Put plainly: IsoQC assay (coupled H-Gln-AMC / pGAPase fluorescence assay). In kind it is biochemical. The conditions noted are these: 10 μM H-Gln-AMC, 1 hour at 37° C., maximum and ten- and hundredfold lower concentrations. An excerpt:
The Golgi luminal, enzymatically active region of human isoQC (S53-L382, Huang et al., JBC, 286, 12439-12449, 2011) was obtained by expression in E. coli of an N-terminally GST-Enterokinase, C-terminally 6× His tagged construct (“6× His” disclosed as SEQ ID NO: 15) in the pET41(+) vector and subsequent purification and enterokinase digestion. Absence of pyroglutamylating activity in an enzymatic dead variant that was cloned, expressed and purified in parallel ruled out that the purification strategy isolates any endogenously present pyroglutamylating activity.
Inhibition of isoQC activity was assessed by incubating 30 μl 50 mM Tris pH8.0 solutions containing 10 μM H-Gln-AMC (Bachem cat.no. 4003647.0100, dissolved in 25 mM HEPES), 1% DMSO and 750 pg/μl recombinant isoQC in the presence or absence of inhibitor for 1 hour at 37° C. A 5-minute incubation at 98° C. followed to stop the reaction and inactivate the enzyme. Next, 25 μl of the reaction was transferred to a 384-well plate containing 25 μl pGAPase enzyme (1:200 diluted in 50 mM Tris pH8.0, 10 mM Dithiothreitol (DTT), enzyme obtained from Qiagen, cat. no. 34342) and incubated for 10 minutes at 37° C. before reading the fluorescence using a SpectraMax Id3 platereader with excitation wavenlength set at 380 nm and emission at 450 nm. Readings were corrected by subtracting background signal from a control well containing no isoQC enzyme and subsequently normalized by dividing through the signal of a well containing enzyme but no inhibitor.

With `COc1ccc(NC(=S)NCCCn2ccnc2)cc1OC` [PBD150], the “CC2C6 binding after withdrawal” value in series [1] (HAP1 cells subsequently cultured 48 hrs without PBD150) was “restored to normal levels”. Moreover, the “CC2C6 bound to the surface” value in series [1] (HAP1 cells, 72 hours, PBD150 1000 microM) is “decreased”. Besides, in series [2], the 2D3 binding entry was “unchanged”, the CC2C6 binding result was “decreased” and the SIRPα-Fc binding entry is reported as “decreased”. Further, the Ki in series [3] was 60 nM.
For `CCCOc1ccc([C@H]2CNC(=O)N2c2ccc3[nH]cnc3c2)cc1` [PQ912, (S)-1-(1H-benzo[d]imidazole-5-yl)-5-(4-propoxyphenyl)imidazolidin-2-one], in series [4], the safety and tolerability result is “safe and well-tolerated”. In [5], the “level of QPCT and QPCTL inhibition” value is reported as “high level”.
Take `Cn1cnnc1C1CCN(c2ncccc2-c2ccc(F)nc2)CC1` [SEN177]: the CD47 surface levels entry in series [6] was “unaffected”. Besides, the SIRPα-Fc staining entry in series [6] (8 out of 8 cell lines tested, same extent as in QPCTL deficient cells) is listed as “reduced”. Further, the “pyroglutamate-modified CD47” value in [7] is recorded as “near-complete inhibition”. Also, the SIRPα binding entry in series [8] was “did not further reduce”. Also, in series [9], the “binding of SIRPα (mSIRPα-Fc)” value was “reduced” and the “total CD47 surface levels” value is recorded as “without altering”. In series [10], the “neutrophil-mediated lysis of tumor cells” value is given as “synergized”. The “lysis of tumor cells by murine immune cells” value in series [11] was “same effects”. Besides, the CD47 protein levels entry in series [12] was “unaltered”. For the same compound, in [12] (versus untreated cells), the “Binding of SIRPα” value is reported as “significantly decreased”.
With `O=C(C1=C(O)C(=O)N(c2ccc3[nH]cnc3c2)C1c1ccc(Cl)c(Cl)c1)C1CCCCC1` (centres unmarked) [compound 000015, 1-(1H-Benzoimidazol-5-yl)-4-cyclohexanecarbonyl-5-(3,4-dichloro-phenyl)-3-hydroxy-1,5-dihydro-pyrrol-2-one], the “pE-CD47 signal (antibody clone CC2C6)” value in series [13] is on record as “did not show convincing reactivity”. Moreover, the isoQC activity entry in series [14] is reported as “did show some activity”.
With `O=C(C1=C(O)C(=O)N(c2ccc3[nH]cnc3c2)C1c1cccc(F)c1F)c1ccccc1` (centres unmarked) [compound 000033, 1-(1H-benzo[d]imidazol-5-yl)-4-benzoyl-5-(2,3-difluorophenyl)-3-hydroxy-1H-pyrrol-2(5H)-one], the “pE-CD47 signal (antibody clone CC2C6)” value in [13] is reported as “did not show convincing reactivity”. For the same compound, the isoQC activity result in series [14] was “did show some activity”.
Taken in the same sequence, the figures for `Cc1ccc(C2C(=S)NC(=O)N2c2ccc3[nH]cnc3c2)c(F)c1F` (centres unmarked) [compound 000040, 1-(1H-benzo[d]imidazol-5-yl)-5-(2,3-difluoro-4-methylphenyl)-4-thioxoimidazolidin-2-one] were “did not show convincing reactivity” and “did show some activity”.
For `Cc1ccc(C2C(c3ccc(O)cc3)=C(O)C(=O)N2CCCn2ccnc2)cc1` (centres unmarked) [compound 000046, 3-Hydroxy-4-(4-hydroxy-phenyl)-1-(3-imidazol-1-yl-propyl)-5-p-tolyl-1,5-dihydro-pyrrol-2-one], the “pE-CD47 signal (antibody clone CC2C6)” value in series [13] is on record as “did not show convincing reactivity”. Further, the isoQC activity result in series [14] is “did show some activity”.
